Like-named read-outs stand apart in the source and are kept apart here.
Key:
B. cinerea = experiment: Spore germination assay, fungicidal activity against B. cinerea; type: cell-based, Botrytis cinerea; settings: Botrytis cinerea, in vitro, n = 3
Procedure: (§1) The fungal pathogens C. lagenarium and B. cinerea was provided by the Agricultural Culture Collection of China (Yangling, Shaanxi, China). C. lagenarium was cultured for 2 weeks at 25 ± 1 °C on potato dextrose agar (PDA) while B. cinerea was cultured at 20 °C on the same medium after being retrieved from the storage tube. Plates were flooded with sterile distilled water, and then conidia were scraped with a glass rod. Mycelial debris was removed by filtration. The spores were harvested and suspended in sterile distilled water containing 0.1% (v/v) Tween 20. The concentration of the spore suspension was adjusted to 1.0 × 10^6 spores/mL with sterilized distilled water following.
(§2) The tested samples (10.0 mg) dissolved in acetone (0.1 mL) were diluted with sterile distilled water to prepare 10.0 mL stock solution, which was further diluted to prepare test solutions in which the final concentration of acetone was <1% (v/v). A series of concentrations of tested samples and one control (1% acetone with sterile distilled water) were separately tested for spore germination of C. lagenarium or B. cinerea. The samples were inoculated with spore suspension of C. lagenarium or B. cinerea containing 1.0 × 10^6 spores/mL. Aliquots of 10 μL of prepared spore suspension were placed on separate glass slides in triplicate. Slides containing the spores were incubated in a moisture chamber at 25 °C for 6~8 h. Each slide was then observed under the microscope for spore germination. Spores were considered to have germinated if the length of the germ tube was at least half the length of the spore. Afterward, spore germination was stopped by applying a drop of lactophenol-cotton blue to the inoculation sites on plates. The numbers of generated spores were counted under a microscope (Olympus BX61, Tokyo, Japan), and the percentage of germinated spores was calculated. Chlorothalonil was used as the positive control.

C. lagenarium = experiment: Spore germination assay, fungicidal activity against C. lagenarium; type: cell-based, Colletotrichum lagenarium; settings: Colletotrichum orbiculare
Procedure: as §1, §2

HepG2 cell line = experiment: Cytotoxic activity against human tumor cells line (HepG2); type: cell-based
[1] = Table 1, from IC50 in μM, read-out: pIC50, C. lagenarium (converted)
[2] = Table 2, fungicidal activity against C. lagenarium used for QSAR, read-out: pIC50 (converted)
[3] = Table 4, experimental, C. lagenarium, read-out: Exp. pIC50 (converted)
[4] = Table 6, read-out: IC50 (μM) (against C. lagenarium)
[5] = in vitro, spore germination, n = 3, read-out: IC50, C. lagenarium

Q: With `C=C1CC(c2ccc(OC(=O)c3ccc(OC)cc3)cc2)OC1=O` (stereo not shown) [Compound 4o, 4-[4-(4-Methoxylbenzoyloxy)phenyl]-2-methylenebutyrolactone] as the compound, how does the melting point read?
A: 184.5 to 185.2 °C

Q: And the IC50 (B. cinerea)?
A: 231 µM

Q: And the IC50 (C. lagenarium; [1])?
A: 219 µM

Q: What about the IC50 (C. lagenarium; [2]) of the same compound?
A: 219 µM

Q: And the IC50 (C. lagenarium; [3])?
A: 219 µM

Q: And the IC50 (C. lagenarium; [4])?
A: 219 µM

Q: What about the IC50 (C. lagenarium; [5]) of the same compound?
A: 219 µM

Q: What about the IC50 (HepG2 cell line) of the same compound?
A: 25 µM

Q: With `C=C1CC(c2cccc(OC(=O)c3ccc(OC)cc3)c2)OC1=O` (stereo not shown) [Compound 6l, 4-[3-(4-Methoxybenzoyloxy)phenyl]-2-methylenebutyrolactone] as the compound, how does the melting point read?
A: 182.6 to 183.3 °C

Q: What about the IC50 (B. cinerea) of the same compound?
A: 179 µM

Q: And the IC50 (C. lagenarium; [1])?
A: 154 µM

Q: And the IC50 (C. lagenarium; [2])?
A: 154 µM

Q: And the IC50 (C. lagenarium; [3])?
A: 154 µM

Q: What about the IC50 (C. lagenarium; [4]) of the same compound?
A: 154 µM

Q: What about the IC50 (C. lagenarium; [5]) of the same compound?
A: 154 µM

Q: And the IC50 (HepG2 cell line)?
A: 58.6 µM

Q: With `C=C1CC(c2ccccc2OC(=O)c2cccc(C)c2)OC1=O` (stereo not shown) [Compound 5i, 4-[2-(3-Methylbenzoyloxy)phenyl]-2-methylenebutyrolactone] as the compound, how does the melting point read?
A: 179.3 to 179.9 °C

Q: What about the IC50 (B. cinerea) of the same compound?
A: 194 µM

Q: And the IC50 (C. lagenarium; [1])?
A: 182 µM

Q: What about the IC50 (C. lagenarium; [2]) of the same compound?
A: 182 µM

Q: What about the IC50 (C. lagenarium; [3]) of the same compound?
A: 182 µM

Q: What about the IC50 (C. lagenarium; [4]) of the same compound?
A: 182 µM

Q: What about the IC50 (C. lagenarium; [5]) of the same compound?
A: 182 µM

Q: What about the IC50 (HepG2 cell line) of the same compound?
A: 85.2 µM

Q: With `C=C1CC(c2ccc(OC(=O)c3cccc(Cl)c3)cc2)OC1=O` (stereo not shown) [Compound 4b, 4-[4-(3-Chlorobenzoyloxy)phenyl]-2-methylenebutyrolactone] as the compound, how does the melting point read?
A: 168.8 to 169.2 °C

Q: And the IC50 (B. cinerea)?
A: 22.1 µM

Q: And the IC50 (C. lagenarium; [1])?
A: 8.99 µM

Q: And the IC50 (C. lagenarium; [2])?
A: 8.99 µM

Q: What about the IC50 (C. lagenarium; [3]) of the same compound?
A: 8.99 µM

Q: And the IC50 (C. lagenarium; [4])?
A: 8.99 µM

Q: What about the IC50 (C. lagenarium; [5]) of the same compound?
A: 8.99 µM

Q: And the IC50 (HepG2 cell line)?
A: 22.4 µM

Q: With `C=C1CC(c2ccc(O)cc2)OC1=O` (stereo not shown) [Compound 4, 4-(4-Hydroxyphenyl)-2-methylenebutyrolactone] as the compound, how does the melting point read?
A: 79 to 81 °C

Q: And the IC50 (B. cinerea)?
A: 208 µM

Q: And the IC50 (C. lagenarium; [1])?
A: 161 µM

Q: And the IC50 (C. lagenarium; [4])?
A: 161 µM

Q: And the IC50 (C. lagenarium; [5])?
A: 161 µM

Q: What about the IC50 (HepG2 cell line) of the same compound?
A: 23.3 µM

Q: Which melting point does the source give for `C=C1CC(c2cccc(OC(=O)c3cccc(Br)c3)c2)OC1=O` (stereo not shown) [Compound 6d, 4-[3-(3-Bromobenzoyloxy)phenyl]-2-methylenebutyrolactone] here?
A: 178.6 to 178.9 °C

Q: What about the IC50 (B. cinerea) of the same compound?
A: 26 µM

Q: What about the IC50 (C. lagenarium; [1]) of the same compound?
A: 8.17 µM

Q: What about the IC50 (C. lagenarium; [2]) of the same compound?
A: 8.17 µM

Q: What about the IC50 (C. lagenarium; [3]) of the same compound?
A: 8.17 µM

Q: What about the IC50 (C. lagenarium; [4]) of the same compound?
A: 8.17 µM

Q: What about the IC50 (C. lagenarium; [5]) of the same compound?
A: 8.17 µM

Q: And the IC50 (HepG2 cell line)?
A: 20.9 µM

Q: For `C=C1CC(c2ccc(OC(=O)c3ccccc3)cc2)OC1=O` (stereo not shown) [Compound 4i, 4-(4-Benzoyloxyphenyl)-2-methylenebutyrolactone], which melting point is on record?
A: 223.3 to 223.7 °C

Q: What about the IC50 (B. cinerea) of the same compound?
A: 112 µM

Q: What about the IC50 (C. lagenarium; [1]) of the same compound?
A: 95.3 µM

Q: And the IC50 (C. lagenarium; [2])?
A: 95.3 µM

Q: What about the IC50 (C. lagenarium; [3]) of the same compound?
A: 95.3 µM

Q: What about the IC50 (C. lagenarium; [4]) of the same compound?
A: 95.4 µM

Q: What about the IC50 (C. lagenarium; [5]) of the same compound?
A: 95.4 µM

Q: And the IC50 (HepG2 cell line)?
A: 5.3 µM

Q: With `C=C1CC(c2ccccc2OC(=O)c2cccc(OC)c2)OC1=O` (stereo not shown) [Compound 5l, 4-[2-(3-Methoxylbenzoyloxy)phenyl]-2-methylenebutyrolactone] as the compound, how does the melting point read?
A: 180.3 to 180.8 °C

Q: What about the IC50 (B. cinerea) of the same compound?
A: 303 µM

Q: What about the IC50 (C. lagenarium; [1]) of the same compound?
A: 284 µM

Q: What about the IC50 (C. lagenarium; [2]) of the same compound?
A: 284 µM

Q: What about the IC50 (C. lagenarium; [3]) of the same compound?
A: 284 µM

Q: And the IC50 (C. lagenarium; [4])?
A: 284 µM

Q: What about the IC50 (C. lagenarium; [5]) of the same compound?
A: 284 µM

Q: And the IC50 (HepG2 cell line)?
A: 29 µM

Q: With `C=C1CC(c2cccc(O)c2)OC1=O` (stereo not shown) [Compound 6, 4-(3-Hydroxyphenyl)-2-methylenebutyrolactone] as the compound, how does the melting point read?
A: 78 to 79 °C

Q: And the IC50 (B. cinerea)?
A: 140 µM

Q: What about the IC50 (C. lagenarium; [1]) of the same compound?
A: 117 µM

Q: And the IC50 (C. lagenarium; [4])?
A: 117 µM

Q: And the IC50 (C. lagenarium; [5])?
A: 117 µM

Q: And the IC50 (HepG2 cell line)?
A: 17.9 µM

Q: Which melting point does the source give for `C=C1CC(c2ccccc2OC(=O)c2cccc(Br)c2)OC1=O` (stereo not shown) [Compound 5d, 4-[2-(3-Bromobenzoyloxy)phenyl]-2-methylenebutyrolactone] here?
A: 189.7 to 190.4 °C

Q: And the IC50 (B. cinerea)?
A: 22.9 µM

Q: And the IC50 (C. lagenarium; [1])?
A: 13.4 µM

Q: And the IC50 (C. lagenarium; [2])?
A: 13.4 µM

Q: What about the IC50 (C. lagenarium; [3]) of the same compound?
A: 13.4 µM

Q: What about the IC50 (C. lagenarium; [4]) of the same compound?
A: 13.4 µM

Q: What about the IC50 (C. lagenarium; [5]) of the same compound?
A: 13.4 µM

Q: And the IC50 (HepG2 cell line)?
A: 35.6 µM
